Source: patent publication US12275745B2, “Therapeutic compounds and methods of use” (Genentech, Inc., priority 2021, dated 2025)

Columns and labels:
TEAD4 = TEAD4 (Homo sapiens, UniProt Q15561); assay: TR-FRET (Lipid HTRF) TEAD lipid pocket probe displacement assay, TEAD4; format: binding; conditions: His-tagged TEAD4, biotinylated lipid pocket probe, 4 hours
TEAD3 = TEAD3 (Homo sapiens, UniProt Q99594); assay: TR-FRET (Lipid HTRF) TEAD lipid pocket probe displacement assay, TEAD3; format: binding; conditions: His-tagged TEAD3, biotinylated lipid pocket probe, 4 hours
Protocol: His-tagged TEAD proteins are pre-incubated with TEAD project compounds for 30 minutes or 4 hours at room temperature. Biotinylated lipid pocket probes are then added to the TEAD/Compound mixture and incubated for 60 minutes at room temperature. The lipid pocket probe competes with the test compound for the TEAD lipid pocket until equilibrium is reached. After 60 minutes, Europium labelled anti-His (Perkin Elmer #AD0110) and XL665 labelled streptavidin (CIS Bio 610SAXAC) are added to the TEAD/test compound/lipid pocket mixture and incubated for 30 minutes or 4 hours. TR-FRET values are then measured using an EnVision multi-label plate reader (Perkin Elmer Cat #2104-001 0A.) If the lipid pocket probe binds to TEAD as expected, a TR-FRET signal results from the proximity of anti-His Eu and XL665. If a TEAD lipid pocket binder such as binds and displaces the lipid pocket probe, the disruption of the TEAD:probe interaction results in a decrease in TR-FRET signal. The potency of compounds as TEAD lipid pocket binders is determined by IC50 value generated using a non-linear 4 parameter curve fit.

TEAD1 = TEAD1 (Homo sapiens, UniProt P28347); assay: TR-FRET (Lipid HTRF) TEAD lipid pocket probe displacement assay, TEAD1; format: binding; conditions: His-tagged TEAD1, biotinylated lipid pocket probe, 4 hours
TEAD2 = TEAD2 (Homo sapiens, UniProt Q15562); assay: biochemical;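 also: TR-FRET competition assay with His-tagged TEAD protein and a biotinylated lipid pocket probe, where probe displacement by compound lowers the signal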
Sequence of TEAD2 (Q15562 whole entry, species assumed): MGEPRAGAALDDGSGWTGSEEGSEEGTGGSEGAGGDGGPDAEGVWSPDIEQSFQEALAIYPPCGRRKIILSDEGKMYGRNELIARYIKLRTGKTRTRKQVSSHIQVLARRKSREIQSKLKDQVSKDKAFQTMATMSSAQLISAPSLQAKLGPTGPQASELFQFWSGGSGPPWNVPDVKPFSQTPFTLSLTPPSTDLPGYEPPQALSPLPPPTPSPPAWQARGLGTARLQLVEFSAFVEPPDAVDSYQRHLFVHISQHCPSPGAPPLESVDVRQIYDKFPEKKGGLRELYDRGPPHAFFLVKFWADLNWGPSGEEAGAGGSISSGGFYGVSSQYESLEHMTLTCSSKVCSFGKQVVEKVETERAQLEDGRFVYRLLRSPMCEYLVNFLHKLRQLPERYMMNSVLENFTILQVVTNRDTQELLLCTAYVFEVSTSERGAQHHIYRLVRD

Sequence of TEAD4 (Q15561 whole entry, species assumed): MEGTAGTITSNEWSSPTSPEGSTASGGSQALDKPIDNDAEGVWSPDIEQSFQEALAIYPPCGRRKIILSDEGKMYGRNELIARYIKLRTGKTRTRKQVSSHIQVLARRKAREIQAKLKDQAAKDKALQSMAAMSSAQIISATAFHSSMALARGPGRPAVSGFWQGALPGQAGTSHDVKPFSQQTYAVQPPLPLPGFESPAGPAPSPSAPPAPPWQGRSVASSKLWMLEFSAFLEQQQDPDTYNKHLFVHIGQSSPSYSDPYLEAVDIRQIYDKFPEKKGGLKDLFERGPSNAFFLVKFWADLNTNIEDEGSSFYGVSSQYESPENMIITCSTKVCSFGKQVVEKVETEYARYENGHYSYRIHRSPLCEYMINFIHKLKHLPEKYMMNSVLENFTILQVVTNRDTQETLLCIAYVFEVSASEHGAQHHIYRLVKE
Sequence of TEAD1 (P28347 whole entry, species assumed): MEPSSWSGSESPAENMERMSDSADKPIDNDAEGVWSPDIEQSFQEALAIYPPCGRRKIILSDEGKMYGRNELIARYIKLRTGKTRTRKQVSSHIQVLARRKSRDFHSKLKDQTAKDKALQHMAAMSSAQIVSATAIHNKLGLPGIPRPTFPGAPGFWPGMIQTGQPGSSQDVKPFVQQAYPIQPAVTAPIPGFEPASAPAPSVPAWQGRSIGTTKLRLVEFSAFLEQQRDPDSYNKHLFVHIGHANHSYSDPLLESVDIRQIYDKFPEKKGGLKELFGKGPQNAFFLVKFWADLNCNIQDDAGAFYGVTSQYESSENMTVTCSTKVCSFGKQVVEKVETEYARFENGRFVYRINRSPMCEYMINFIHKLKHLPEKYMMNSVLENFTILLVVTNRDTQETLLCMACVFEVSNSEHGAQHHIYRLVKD
Sequence of TEAD3 (Q99594 whole entry, species assumed): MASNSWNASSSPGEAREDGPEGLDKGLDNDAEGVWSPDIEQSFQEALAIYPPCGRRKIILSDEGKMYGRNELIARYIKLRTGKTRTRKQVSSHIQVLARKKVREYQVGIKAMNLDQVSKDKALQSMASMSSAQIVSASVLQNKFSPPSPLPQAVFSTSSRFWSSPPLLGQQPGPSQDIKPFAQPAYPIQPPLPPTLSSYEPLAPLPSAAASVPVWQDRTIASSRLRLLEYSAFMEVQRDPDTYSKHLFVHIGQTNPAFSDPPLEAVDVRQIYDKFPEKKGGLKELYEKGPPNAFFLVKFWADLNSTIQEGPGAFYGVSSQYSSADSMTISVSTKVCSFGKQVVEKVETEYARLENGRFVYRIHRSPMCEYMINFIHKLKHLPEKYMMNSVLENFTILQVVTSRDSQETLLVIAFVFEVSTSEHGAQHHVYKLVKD

Row | IC50 (TEAD4) [nM] | IC50 (TEAD3) [nM] | IC50 (TEAD1) [nM] | IC50 (TEAD2) [nM] | SMILES
1 | 6.8 | 26 | 20 | 33 | C=CC(=O)N(C)Cc1cc(-c2ccc(OC(F)(F)F)cc2)c2nccn2c1 [Compound 38, N-methyl-N-[[8-[4-(trifluoromethoxy)phenyl]imidazo[1,2-a]pyridin-6-yl]methyl]prop-2-enamide]
2 | 24.5 | 50.5 | 8 | 9 | C=CC(=O)NCc1cc(-c2ccc(OC(F)(F)F)cc2)c2ncn(C(F)F)c2c1CO [Compound 39, N-[[3-(difluoromethyl)-4-(hydroxymethyl)-7-[4-(trifluoromethoxy)phenyl]benzimidazol-5-yl]methyl]prop-2-enamide]
3 | 16 | 22 | 10 | 9.8 | C=CC(=O)NCc1cc(-c2ccc(OC(F)(F)F)cc2)c2cccnc2c1C [Compound 43, N-[[8-methyl-5-[4-(trifluoromethoxy)phenyl]-7-quinolyl]methyl]prop-2-enamide]
4 | 54 | 18 | 11 | 16 | C=CC(=O)NCc1cc(-c2ccc(OC(F)(F)F)cc2)c2cccnc2c1CO [Compound 44, N-[[8-(hydroxymethyl)-5-[4-(trifluoromethoxy)phenyl]-7-quinolyl]methyl]prop-2-enamide]
5 | 34 | 37 | 12 | 11 | C=CC(=O)NCc1cc(-c2ccc(OC(F)(F)F)cc2)c2ncccc2c1CO [Compound 50, N-[[5-(hydroxymethyl)-8-[4-(trifluoromethoxy)phenyl]-6-quinolyl]methyl]prop-2-enamide]
6 | 81 | 380 | 18 | 37 | C=C(F)C(=O)N1CC(c2cc(-c3ccc(OC(F)(F)F)cc3)c3ncn(C)c3c2CO)C1 [Compound 59, 2-fluoro-1-[3-[4-(hydroxymethyl)-3-methyl-7-[4-(trifluoromethoxy)phenyl]benzimidazol-5-yl]azetidin-1-yl]prop-2-en-1-one]
7 | 80 | 310 | 110 | 76 | C=C(F)C(=O)NCc1cc(-c2ccc(OC(F)(F)F)cc2)c2ncn(C)c2c1CO [Compound 63, 2-fluoro-N-[[4-(hydroxymethyl)-3-methyl-7-[4-(trifluoromethoxy)phenyl]benzimidazol-5-yl]methyl]prop-2-enamide]
8 | 44 | 700 | 270 | 510 | CN(Cc1cc(-c2ccc(OC(F)(F)F)cc2)c2ncn(C)c2c1CO)C(=O)/C=C/CO [Compound 64, (E)-4-hydroxy-N-[[4-(hydroxymethyl)-3-methyl-7-[4-(trifluoromethoxy)phenyl]benzimidazol-5-yl]methyl]-N-methyl-but-2-enamide]
9 | 140 | 420 | 93 | 340 | C=C(F)C(=O)NCc1cc(-c2ccc(OC(F)(F)F)cc2)c2c(c1C#N)CCO2 [Compound 67, N-[[4-cyano-7-[4-(trifluoromethoxy)phenyl]-2,3-dihydrobenzofuran-5-yl]methyl]-2-fluoro-prop-2-enamide]
10 | 7.5 | 97 | 40 | 100 | C=CC(=O)NCc1nc(-c2ccc(OC(F)(F)F)cc2)c2ncn(C)c2n1 [Compound 69, N-[[9-methyl-6-[4-(trifluoromethoxy)phenyl]purin-2-yl]methyl]prop-2-enamide]
11 | 39 | 220 | 58 | 40 | C=CC(=O)NCc1nc(-c2ccc(OC(F)(F)F)cc2)c2ncn(C)c2c1CO [Compound 73, N-((7-(hydroxymethyl)-1-methyl-4-(4-(trifluoromethoxy)phenyl)-1H-imidazo[4,5-c]pyridin-6-yl)methyl)acrylamide]
12 | 2.5 | 110 | 11 | 4 | C=CC(=O)NCc1cc(-c2ccc(OC(F)(F)F)cc2)c2ncn(C)c2c1C(F)F [Compound 77, N-[[4-(difluoromethyl)-3-methyl-7-[4-(trifluoromethoxy)phenyl]benzimidazol-5-yl]methyl]prop-2-enamide]
13 | 740 | 840 | 130 | 110 | C=C(F)C(=O)NCc1cc(-c2ccc(OC(F)(F)F)cc2)c2nccnc2c1[C@@H](O)CO [Compound 80, (R)-N-((5-(1,2-Dihydroxyethyl)-8-(4-(trifluoromethoxy)phenyl)quinoxalin-6-yl)methyl)-2-fluoroacrylamide]
14 | 13 | 220 | 31 | 21 | O=C(NCc1cc(-c2ccc(OC(F)(F)F)cc2)c2nccnc2c1[C@@H](O)CO)C1=CCC1 [Compound 81, (R)-N-((5-(1,2-Dihydroxyethyl)-8-(4-(trifluoromethoxy)phenyl)quinoxalin-6-yl)methyl)cyclobut-1-ene-1-carboxamide]
15 | 48 | 38.7 | 26.7 | 21 | C=CC(=O)NCc1cc(-c2ccc(OC(F)(F)F)cc2)c2nccnc2c1CO [Compound 84, N-((5-(Hydroxymethyl)-8-(4-(trifluoromethoxy)phenyl)quinoxalin-6-yl)methyl)acrylamide]
16 | 88.7 | 127 | 78 | 121 | C=CC(=O)NCc1cc(-c2ccc(OC(F)(F)F)cc2)c2nccnc2c1C#N [Compound 85, N-((5-Cyano-8-(4-(trifluoromethoxy)phenyl)quinoxalin-6-yl)methyl)acrylamide]
17 | 32 | 230 | 120 | 38 | O=C(C1=CCC1)N1CC(c2cc(-c3ccc(OC(F)(F)F)cc3)c3nccnc3c2[C@@H](O)CO)C1 [Compound 86, (R)-Cyclobut-1-en-1-yl(3-(5-(1,2-dihydroxyethyl)-8-(4-(trifluoromethoxy)phenyl)quinoxalin-6-yl)azetidin-1-yl)methanone]
18 | 11 | 140 | 50 | 16 | O=C(C1=CCC1)N1CC(c2cc(-c3ccc(OC(F)(F)F)cc3)c3nccnc3c2[C@H](O)CO)C1 [Compound 87, (S)-Cyclobut-1-en-1-yl(3-(5-(1,2-dihydroxyethyl)-8-(4-(trifluoromethoxy)phenyl)quinoxalin-6-yl)azetidin-1-yl)methanone]
19 | 3.1 | 7.4 | 4.4 | 6.7 | C=CC(=O)N(C)Cc1cc(-c2ccc(OC(F)(F)F)cc2)c2c(c1CO)CCO2 [Compound 88, N-((4-(Hydroxymethyl)-7-(4-(trifluoromethoxy)phenyl)-2,3-dihydrobenzofuran-5-yl)methyl)-N-methylacrylamide]
20 | 490 | 1100 | 880 | 540 | C#Cc1ccc(-c2cc(CNC(=O)C=C)c(CO)c3c2OCC3)cc1 [Compound 93, N-((7-(4-Ethynylphenyl)-4-(hydroxymethyl)-2,3-dihydrobenzofuran-5-yl)methyl)acrylamide]
21 | 13 | 56 | 44 | 67 | C#Cc1ccc(-c2cc(CN(C)C(=O)C=C)c(CO)c3c2OCC3)cc1 [Compound 94, N-((7-(4-Ethynylphenyl)-4-(hydroxymethyl)-2,3-dihydrobenzofuran-5-yl)methyl)-N-methylacrylamide]
22 | 3.8 | 9.5 | 8.6 | 8.8 | C=CC(=O)N(C)Cc1cc(-c2ccc(OC(F)(F)F)cc2)c2c(c1C#N)CCO2 [Compound 95, N-((4-cyano-7-(4-(trifluoromethoxy)phenyl)-2,3-dihydrobenzofuran-5-yl)methyl)-N-methylacrylamide]
23 | 48 | 680 | 710 | 140 | C=CC(=O)N(CC)Cc1nc(-c2ccc(OC(F)(F)F)cc2)c2ncsc2n1 [Compound 98, N-Ethyl-N-((7-(4-(trifluoromethoxy)phenyl)thiazolo[5,4-d]pyrimidin-5-yl)methyl)acrylamide]
24 | 2.7 | 3.1 | 3.7 | 4.3 | C=CC(=O)N1CC(c2nc(-c3ccc(OC(F)(F)F)cc3)c3ncsc3n2)C1 [Compound 99, 1-(3-(7-(4-(Trifluoromethoxy)phenyl)thiazolo[5,4-d]pyrimidin-5-yl)azetidin-1-yl)prop-2-en-1-one]
25 | 23 | 110 | 120 | 310 | C=CC(=O)NCc1nc(C23CC(C(C)C)(C2)C3)c2ncsc2n1 [Compound 102, N-((7-(3-Isopropylbicyclo[1.1.1]pentan-1-yl)thiazolo[5,4-d]pyrimidin-5-yl)methyl)acrylamide]
26 | 40 | 27 | 95 | 80 | C=CC(=O)NCc1cc(-c2ccc(OC(F)(F)F)cc2)c2ncsc2c1-c1noc(=O)[nH]1 [Compound 104, N-((7-(5-Oxo-4,5-dihydro-1,2,4-oxadiazol-3-yl)-4-(4-(trifluoromethoxy)phenyl)benzo[d]thiazol-6-yl)methyl)acrylamide]
27 | 31 | 44 | 24 | 24 | C=CC(=O)NCc1cc(-c2ccc(OC(F)(F)F)cc2)c2ncoc2c1CO [Compound 113, N-((7-(Hydroxymethyl)-4-(4-(trifluoromethoxy)phenyl)benzo[d]oxazol-6-yl)methyl)acrylamide]
28 | 740 | 700 | 480 | 350 | C=CC(=O)NCc1cc(-c2ccc(OC(F)(F)F)nc2)c2ncoc2c1CO [Compound 114, N-((7-(Hydroxymethyl)-4-(6-(trifluoromethoxy)pyridin-3-yl)benzo[d]oxazol-6-yl)methyl)acrylamide]
